Experiments:
cocklebur = experiment: Test B pre/postemergence cocklebur; format: in vivo, Xanthium strumarium
Procedure, shortened: (§1)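 Response is a visual 0-to-10 score relative to untreated plants, where 0 means no effect and 10 means complete control, taken twelve to sixteen days after application. Treatments went onto soil at planting and onto foliage of 1- to 4-leaf plants, using a surfactant-containing non-phytotoxic solvent.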

morningglory = experiment: Test B pre/postemergence morningglory; format: in vivo, Ipomoea hederacea
Procedure, shortened: as §1

surinam grass = experiment: Test B pre/postemergence surinam grass; format: in vivo, Brachiaria decumbens
Procedure, shortened: as §1

velvetleaf = experiment: Test B pre/postemergence velvetleaf; format: in vivo, Abutilon theophrasti
Procedure, shortened: as §1

blackgrass = experiment: Test B pre/postemergence blackgrass; format: in vivo, Alopecurus myosuroides
Procedure, shortened: as §1

giant foxtail = experiment: Test B pre/postemergence giant foxtail; format: in vivo, Setaria faberii
Procedure, shortened: as §1

crabgrass = experiment: Test B pre/postemergence crabgrass; format: in vivo, Digitaria sanguinalis
Procedure, shortened: as §1

sugar beet = experiment: Test B pre/postemergence sugar beet; format: in vivo, Beta vulgaris
Procedure, shortened: as §1

soybean = experiment: Test B pre/postemergence soybean; format: in vivo, Glycine max
Procedure, shortened: as §1

rape = experiment: Test B pre/postemergence rape; format: in vivo, Brassica napus
Procedure, shortened: as §1

bedstraw = experiment: Test B pre/postemergence bedstraw; format: in vivo, Galium aparine
Procedure, shortened: as §1

wild oat = experiment: Test B pre/postemergence wild oat; format: in vivo, Avena fatua
Procedure, shortened: as §1

purple nutsedge = experiment: Test B pre/postemergence purple nutsedge; format: in vivo, Cyperus rotundus
Procedure, shortened: as §1

wheat = experiment: Test B pre/postemergence wheat; format: in vivo, Triticum aestivum
Procedure, shortened: as §1

corn = experiment: Test B pre/postemergence corn; format: in vivo, Zea mays
Procedure, shortened: as §1

pigweed = experiment: Test B pre/postemergence pigweed; format: in vivo, Amaranthus retroflexus
Procedure, shortened: as §1

[1] = Postemergence, Rate 62 g/ha, scale of 0 to 10, 0 is no effect, 10 is complete control
[2] = Postemergence, Rate 125 g/ha, scale 0 to 10, 0 is no effect, 10 is complete control
[3] = Postemergence, Rate 500 g/ha, scale 0 to 10, 0 is no effect, 10 is complete control
[4] = Preemergence, Rate 62 g/ha, scale of 0 to 10 where 0 is no effect and 10 is complete control
[5] = Preemergence, Rate 125 g/ha, scale 0 to 10, 0 is no effect, 10 is complete control
[6] = Rate 250 g/ha, Postemergence, scale of 0 to 10 where 0 is no effect and 10 is complete control
[7] = Preemergence, Rate 500 g/ha, scale of 0 to 10 where 0 is no effect and 10 is complete control
[8] = Preemergence, Rate 500 g/ha, scale 0 to 10, 0 is no effect, 10 is complete control

CC(C)N(C(=O)n1oc(=O)n(CCCCF)c1=O)c1ccc(F)cc1F [Compound 522]
Cocklebur plant response rating (cocklebur; [1]): 0 | Cocklebur plant response rating (cocklebur; [2]): 3 | Plant response rating, Cocklebur (cocklebur; [3]): 3 | Plant response rating, Cocklebur (cocklebur; [4]): 0 | Cocklebur plant response rating (cocklebur; [5]): 0 | Cocklebur plant response rating (0 to 10 scale) (cocklebur; Preemergence, Rate 250 g/ha): 0 | Plant response rating, Cocklebur (cocklebur; [6]): 3 | Morningglory plant response rating (morningglory; [1]): 3 | Morningglory plant response rating (morningglory; [2]): 4 | Plant response rating, Morningglory (morningglory; [3]): 5 | Plant response rating, Morningglory (morningglory; [4]): 0 | Morningglory plant response rating (morningglory; [5]): 2 | Morningglory plant response rating (0 to 10 scale) (morningglory; Preemergence, Rate 250 g/ha): 2 | Morningglory plant response rating (morningglory; [7]): 4 | Plant response rating, Morningglory (morningglory; [6]): 4 | B. signalgrass plant response rating (surinam grass; [1]): 0 | B. signalgrass plant response rating (surinam grass; [2]): 5 | Plant response rating, B. signalgrass (surinam grass; [3]): 7 | Plant response rating, B. signalgrass (surinam grass; [4]): 10 | B. signalgrass plant response rating (surinam grass; [5]): 9 | B. signalgrass plant response rating (0 to 10 scale, 0 is no effect, 10 is complete control) (surinam grass; Preemergence, Rate 250 g/ha): 9 | B. signalgrass plant response rating (surinam grass; [8]): 9 | Plant response rating, B. signalgrass (surinam grass; [6]): 7 | Velvetleaf plant response rating (velvetleaf; [1]): 2 | Velvetleaf plant response rating (velvetleaf; [2]): 5 | Plant response rating, Velvetleaf (velvetleaf; [3]): 7 | Plant response rating, Velvetleaf (velvetleaf; [4]): 2 | Velvetleaf plant response rating (velvetleaf; [5]): 6 | Velvetleaf plant response rating (0 to 10 scale) (velvetleaf; Preemergence, Rate 250 g/ha): 8 | Velvetleaf plant response rating (velvetleaf; [7]): 9 | Plant response rating, Velvetleaf (velvetleaf; [6]): 7 | Blackgrass plant response rating (blackgrass; [1]): 8 | Blackgrass plant response rating (blackgrass; [2]): 8 | Plant response rating, Blackgrass (blackgrass; [3]): 8 | Plant response rating, Blackgrass (blackgrass; [4]): 4 | Blackgrass plant response rating (blackgrass; [5]): 8 | Blackgrass plant response rating (0 to 10 scale) (blackgrass; Preemergence, Rate 250 g/ha): 9 | Blackgrass plant response rating (blackgrass; [7]): 9 | Plant response rating, Blackgrass (blackgrass; [6]): 8 | Giant foxtail plant response rating (giant foxtail; [1]): 8 | Giant foxtail plant response rating (giant foxtail; [2]): 8 | Plant response rating, Giant foxtail (giant foxtail; [3]): 9 | Plant response rating, Giant foxtail (giant foxtail; [4]): 10 | Giant foxtail plant response rating (giant foxtail; [5]): 10 | Giant foxtail plant response rating (0 to 10 scale) (giant foxtail; Preemergence, Rate 250 g/ha): 10 | Giant foxtail plant response rating (giant foxtail; [7]): 10 | Crabgrass plant response rating (crabgrass; [1]): 8 | Crabgrass plant response rating (crabgrass; [2]): 8 | Plant response rating, Crabgrass (crabgrass; [3]): 9 | Plant response rating, Crabgrass (crabgrass; [4]): 9 | Crabgrass plant response rating (crabgrass; [5]): 10 | Crabgrass plant response rating (0 to 10 scale) (crabgrass; Preemergence, Rate 250 g/ha): 10 | Crabgrass plant response rating (crabgrass; [7]): 10 | Plant response rating, Crabgrass (crabgrass; [6]): 8 | Sugarbeets plant response rating (sugar beet; [1]): 6 | Sugarbeets plant response rating (sugar beet; [2]): 6 | Plant response rating, Sugarbeets (sugar beet; [3]): 6 | Plant response rating, Sugarbeets (sugar beet; [4]): 5 | Sugarbeets plant response rating (sugar beet; [5]): 5 | Sugarbeets plant response rating (0 to 10 scale) (sugar beet; Preemergence, Rate 250 g/ha): 5 | Sugarbeets plant response rating (sugar beet; [7]): 7 | Plant response rating, Sugarbeets (sugar beet; [6]): 6 | Soybean plant response rating (soybean; [1]): 4 | Soybean plant response rating (soybean; [2]): 6 | Plant response rating, Soybean (soybean; [3]): 6 | Plant response rating, Soybean (soybean; [4]): 0 | Soybean plant response rating (soybean; [5]): 0 | Soybean plant response rating (0 to 10 scale) (soybean; Preemergence, Rate 250 g/ha): 0 | Soybean plant response rating (soybean; [7]): 10 | Rape plant response rating (rape; [1]): 0 | Rape plant response rating (rape; [2]): 0 | Plant response rating, Rape (rape; [3]): 9 | Plant response rating, Rape (rape; [4]): 0 | Rape plant response rating (rape; [5]): 2 | Rape plant response rating (0 to 10 scale) (rape; Preemergence, Rate 250 g/ha): 4 | Rape plant response rating (rape; [7]): 6 | Plant response rating, Rape (rape; [6]): 0 | Bedstraw plant response rating (bedstraw; [1]): 0 | Bedstraw plant response rating (bedstraw; [2]): 0 | Plant response rating, Bedstraw (bedstraw; [3]): 10 | Plant response rating, Bedstraw (bedstraw; [4]): 10 | Bedstraw plant response rating (bedstraw; [5]): 10 | Bedstraw plant response rating (0 to 10 scale) (bedstraw; Preemergence, Rate 250 g/ha): 10 | Bedstraw plant response rating (bedstraw; [8]): 10 | Plant response rating, Bedstraw (bedstraw; [6]): 9 | Wild oats plant response rating (wild oat; [1]): 0 | Wild oats plant response rating (wild oat; [2]): 4 | Plant response rating, Wild oats (wild oat; [3]): 7 | Plant response rating, Wild oats (wild oat; [4]): 10 | Wild oats plant response rating (wild oat; [5]): 2 | Wild oats plant response rating (0 to 10 scale) (wild oat; Preemergence, Rate 250 g/ha): 4 | Wild oats plant response rating (wild oat; [7]): 9 | Plant response rating, Wild oats (wild oat; [6]): 7 | Nutsedge plant response rating (purple nutsedge; [1]): 0 | Nutsedge plant response rating (purple nutsedge; [2]): 0 | Plant response rating, Nutsedge (purple nutsedge; [3]): 0 | Plant response rating, Nutsedge (purple nutsedge; [4]): 0 | Nutsedge plant response rating (purple nutsedge; [5]): 9 | Nutsedge plant response rating (0 to 10 scale) (purple nutsedge; Preemergence, Rate 250 g/ha): 10 | Nutsedge plant response rating (purple nutsedge; [7]): 10 | Plant response rating, Nutsedge (purple nutsedge; [6]): 0 | Wheat plant response rating (wheat; [1]): 0 | Wheat plant response rating (wheat; [2]): 0 | Plant response rating, Wheat (wheat; [3]): 5 | Plant response rating, Wheat (wheat; [4]): 0 | Wheat plant response rating (wheat; [5]): 0 | Wheat plant response rating (0 to 10 scale) (wheat; Preemergence, Rate 250 g/ha): 2 | Wheat plant response rating (wheat; [7]): 8 | Plant response rating, Wheat (wheat; [6]): 5 | Corn plant response rating (corn; [1]): 0 | Corn plant response rating (corn; [2]): 3 | Plant response rating, Corn (corn; [3]): 5 | Plant response rating, Corn (corn; [4]): 2 | Corn plant response rating (corn; [5]): 7 | Corn plant response rating (0 to 10 scale) (corn; Preemergence, Rate 250 g/ha): 7 | Corn plant response rating (corn; [7]): 9 | Plant response rating, Corn (corn; [6]): 3 | Redroot pigweed plant response rating (pigweed; [1]): 0 | Redroot pigweed plant response rating (pigweed; [2]): 4 | Plant response rating, Redroot pigweed (pigweed; [3]): 9 | Plant response rating, Redroot pigweed (pigweed; [4]): 10 | Redroot pigweed plant response rating (pigweed; [5]): 10 | Redroot pigweed plant response rating (0 to 10 scale) (pigweed; Preemergence, Rate 250 g/ha): 10 | Redroot pigweed plant response rating (pigweed; [7]): 10 | Plant response rating, Redroot pigweed (pigweed; [6]): 4

Reference: patent US6737383B1, “Herbicidal oxadiazolidines” (priority 1999, dated 2004)
